Experimental data published in ChEMBL document CHEMBL4808217, “Design, Synthesis, and Characterization of 4-Aminoquinazolines as Potent Inhibitors of the G Protein-Coupled Receptor Kinase 6 (GRK6) for the Treatment of Multiple Myeloma” (J Med Chem, 2021).

Key:
[1] = target: T1, G protein-coupled receptor kinase 6 (Homo sapiens, UniProt P43250); test: Inhibition of recombinant full-length human GRK6 using casein as substrate measured after 80 mins in presence of [gamma33P]ATP by radiometric scintillation counting method
[2] = target: T2, Aurora kinase A (Homo sapiens, UniProt O14965); test: Inhibition of recombinant full length human Aurora A using LRRASLG as substrate incubated for 40 mins in presence of [gamma-33ATP] by radiometric scintillation counting method
T2 sequence (O14965 whole entry): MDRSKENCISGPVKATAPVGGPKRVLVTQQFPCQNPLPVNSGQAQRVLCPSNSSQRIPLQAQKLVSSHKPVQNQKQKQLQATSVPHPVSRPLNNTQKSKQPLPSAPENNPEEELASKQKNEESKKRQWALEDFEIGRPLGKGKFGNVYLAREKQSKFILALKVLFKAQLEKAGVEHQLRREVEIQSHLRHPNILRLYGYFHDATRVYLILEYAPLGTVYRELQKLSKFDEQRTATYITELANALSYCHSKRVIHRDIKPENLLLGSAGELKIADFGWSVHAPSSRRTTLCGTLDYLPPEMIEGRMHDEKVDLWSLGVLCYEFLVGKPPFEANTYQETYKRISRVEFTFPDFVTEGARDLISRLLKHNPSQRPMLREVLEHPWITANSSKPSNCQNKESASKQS

[3] = target: Insulin-like growth factor 1 receptor (Homo sapiens, UniProt P08069); test: Inhibition of recombinant human IGF-1R (959 to end residues) using KKKSPGEYVNIEF as substrate incubated for 40 mins in presence of [gamma-33ATP] by radiometric scintillation counting method
[4] = target: T3, Rhodopsin kinase GRK1 (Homo sapiens, UniProt Q15835); test: Inhibition of human GRK1 using casein as substrate in presence of [gamma33P]ATP by radiometric hotspot kinase assay
T3 sequence (Q15835 whole entry): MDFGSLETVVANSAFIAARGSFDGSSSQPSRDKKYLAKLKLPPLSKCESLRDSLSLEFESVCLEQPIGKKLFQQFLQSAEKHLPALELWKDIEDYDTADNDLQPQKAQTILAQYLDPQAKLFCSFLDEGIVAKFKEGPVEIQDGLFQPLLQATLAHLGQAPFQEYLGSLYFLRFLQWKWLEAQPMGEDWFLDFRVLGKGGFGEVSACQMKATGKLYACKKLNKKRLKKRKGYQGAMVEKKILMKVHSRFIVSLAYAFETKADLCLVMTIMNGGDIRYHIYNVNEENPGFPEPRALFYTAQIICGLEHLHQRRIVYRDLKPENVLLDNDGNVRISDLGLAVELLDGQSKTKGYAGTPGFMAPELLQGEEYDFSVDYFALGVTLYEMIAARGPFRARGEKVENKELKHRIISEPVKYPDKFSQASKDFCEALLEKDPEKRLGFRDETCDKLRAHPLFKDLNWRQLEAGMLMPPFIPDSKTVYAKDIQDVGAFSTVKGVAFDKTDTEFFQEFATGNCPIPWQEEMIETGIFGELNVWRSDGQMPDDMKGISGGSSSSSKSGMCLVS

[5] = target: T4, Beta-adrenergic receptor kinase 1 (Homo sapiens, UniProt P25098); test: Inhibition of human GRK2 using casein as substrate in presence of [gamma33P]ATP by radiometric hotspot kinase assay
T4 sequence (P25098 whole entry): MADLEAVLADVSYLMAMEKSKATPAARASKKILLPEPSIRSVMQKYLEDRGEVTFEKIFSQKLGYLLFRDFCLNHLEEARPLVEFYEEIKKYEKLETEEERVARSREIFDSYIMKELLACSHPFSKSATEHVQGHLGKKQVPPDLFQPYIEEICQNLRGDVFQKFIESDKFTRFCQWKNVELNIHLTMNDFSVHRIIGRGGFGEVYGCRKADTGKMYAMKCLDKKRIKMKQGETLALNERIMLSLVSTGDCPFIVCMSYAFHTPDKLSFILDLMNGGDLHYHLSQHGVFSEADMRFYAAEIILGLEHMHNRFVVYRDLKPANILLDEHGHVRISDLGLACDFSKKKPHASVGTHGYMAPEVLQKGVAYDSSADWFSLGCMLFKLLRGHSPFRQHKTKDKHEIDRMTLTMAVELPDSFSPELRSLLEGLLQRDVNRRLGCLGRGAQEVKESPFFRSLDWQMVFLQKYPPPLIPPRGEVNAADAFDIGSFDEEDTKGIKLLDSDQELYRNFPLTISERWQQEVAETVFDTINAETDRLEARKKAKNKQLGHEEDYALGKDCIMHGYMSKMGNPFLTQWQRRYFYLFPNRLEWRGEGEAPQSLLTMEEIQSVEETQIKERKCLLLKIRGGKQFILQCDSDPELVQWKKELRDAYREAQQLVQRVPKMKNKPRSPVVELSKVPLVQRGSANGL

[6] = target: T5, G protein-coupled receptor kinase 3 (Homo sapiens, UniProt P35626); test: Inhibition of human GRK3 using casein as substrate in presence of [gamma33P]ATP by radiometric hotspot kinase assay
T5 sequence (P35626 whole entry): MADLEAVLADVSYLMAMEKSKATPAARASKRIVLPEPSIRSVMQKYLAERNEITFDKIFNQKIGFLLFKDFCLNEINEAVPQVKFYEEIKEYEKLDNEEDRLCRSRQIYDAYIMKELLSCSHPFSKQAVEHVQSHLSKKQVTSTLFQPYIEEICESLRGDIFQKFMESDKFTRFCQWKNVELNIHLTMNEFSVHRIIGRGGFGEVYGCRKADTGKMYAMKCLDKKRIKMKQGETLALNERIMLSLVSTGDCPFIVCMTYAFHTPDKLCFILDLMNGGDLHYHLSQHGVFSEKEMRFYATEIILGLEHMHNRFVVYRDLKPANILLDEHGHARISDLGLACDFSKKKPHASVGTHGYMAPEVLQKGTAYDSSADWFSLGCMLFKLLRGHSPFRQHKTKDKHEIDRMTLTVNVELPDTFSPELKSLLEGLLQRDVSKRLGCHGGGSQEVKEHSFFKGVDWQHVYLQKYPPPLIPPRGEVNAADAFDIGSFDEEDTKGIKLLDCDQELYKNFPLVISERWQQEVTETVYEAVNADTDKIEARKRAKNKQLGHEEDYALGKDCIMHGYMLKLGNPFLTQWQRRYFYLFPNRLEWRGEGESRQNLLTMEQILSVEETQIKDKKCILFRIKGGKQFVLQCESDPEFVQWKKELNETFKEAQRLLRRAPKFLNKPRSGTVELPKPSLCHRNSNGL

[7] = target: G protein-coupled receptor kinase 4 (Homo sapiens, UniProt P32298); test: Inhibition of human GRK4 using casein as substrate in presence of [gamma33P]ATP by radiometric hotspot kinase assay
[8] = target: T1, G protein-coupled receptor kinase 6; test: Inhibition of human GRK6 using casein as substrate in presence of [gamma33P]ATP by radiometric hotspot kinase assay
[9] = target: T6, Rhodopsin kinase GRK7 (Homo sapiens, UniProt Q8WTQ7); test: Inhibition of recombinant full length human GRK7 using casein as substrate incubated for 40 mins in presence of [gamma-33ATP] by scintillation counting based radiometry assay
T6 sequence (Q8WTQ7 whole entry): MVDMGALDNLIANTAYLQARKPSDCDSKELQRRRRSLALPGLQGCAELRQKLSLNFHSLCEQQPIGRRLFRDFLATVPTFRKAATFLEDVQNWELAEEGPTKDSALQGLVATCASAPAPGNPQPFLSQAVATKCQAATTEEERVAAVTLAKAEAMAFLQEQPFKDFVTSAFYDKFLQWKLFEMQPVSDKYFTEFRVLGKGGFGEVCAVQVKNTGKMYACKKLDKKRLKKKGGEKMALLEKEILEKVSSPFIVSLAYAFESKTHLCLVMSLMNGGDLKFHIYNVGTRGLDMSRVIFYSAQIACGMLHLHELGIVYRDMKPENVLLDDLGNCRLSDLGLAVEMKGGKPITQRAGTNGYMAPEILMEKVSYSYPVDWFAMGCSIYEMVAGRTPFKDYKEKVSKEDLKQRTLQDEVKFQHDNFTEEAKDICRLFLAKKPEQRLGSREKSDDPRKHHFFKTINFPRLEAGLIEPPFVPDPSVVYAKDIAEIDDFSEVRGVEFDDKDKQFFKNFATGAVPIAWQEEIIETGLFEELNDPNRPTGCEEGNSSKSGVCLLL

[10] = target: T1, G protein-coupled receptor kinase 6; test: Binding affinity to FLAG-tagged GRK6 in human KMS11 cells incubated for […] by ITDR assay; assay type: cell-based, KMS-11

T1 sequence (P43250 whole entry): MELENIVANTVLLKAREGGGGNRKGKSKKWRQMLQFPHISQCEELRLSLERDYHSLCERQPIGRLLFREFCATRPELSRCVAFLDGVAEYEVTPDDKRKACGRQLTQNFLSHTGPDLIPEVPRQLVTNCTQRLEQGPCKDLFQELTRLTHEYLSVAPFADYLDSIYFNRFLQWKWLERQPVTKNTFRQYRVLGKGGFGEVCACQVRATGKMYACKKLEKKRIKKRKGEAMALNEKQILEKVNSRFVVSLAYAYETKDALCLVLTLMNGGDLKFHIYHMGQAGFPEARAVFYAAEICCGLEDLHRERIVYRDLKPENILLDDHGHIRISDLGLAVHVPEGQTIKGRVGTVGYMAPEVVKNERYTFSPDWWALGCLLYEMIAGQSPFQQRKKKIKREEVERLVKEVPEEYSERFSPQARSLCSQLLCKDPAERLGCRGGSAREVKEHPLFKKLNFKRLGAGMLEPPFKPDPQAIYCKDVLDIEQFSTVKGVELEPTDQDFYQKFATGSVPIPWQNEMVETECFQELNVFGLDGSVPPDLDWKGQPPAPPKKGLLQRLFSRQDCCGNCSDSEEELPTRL
Insulin-like growth factor 1 receptor, sequence (P08069 31-736 limits assumed): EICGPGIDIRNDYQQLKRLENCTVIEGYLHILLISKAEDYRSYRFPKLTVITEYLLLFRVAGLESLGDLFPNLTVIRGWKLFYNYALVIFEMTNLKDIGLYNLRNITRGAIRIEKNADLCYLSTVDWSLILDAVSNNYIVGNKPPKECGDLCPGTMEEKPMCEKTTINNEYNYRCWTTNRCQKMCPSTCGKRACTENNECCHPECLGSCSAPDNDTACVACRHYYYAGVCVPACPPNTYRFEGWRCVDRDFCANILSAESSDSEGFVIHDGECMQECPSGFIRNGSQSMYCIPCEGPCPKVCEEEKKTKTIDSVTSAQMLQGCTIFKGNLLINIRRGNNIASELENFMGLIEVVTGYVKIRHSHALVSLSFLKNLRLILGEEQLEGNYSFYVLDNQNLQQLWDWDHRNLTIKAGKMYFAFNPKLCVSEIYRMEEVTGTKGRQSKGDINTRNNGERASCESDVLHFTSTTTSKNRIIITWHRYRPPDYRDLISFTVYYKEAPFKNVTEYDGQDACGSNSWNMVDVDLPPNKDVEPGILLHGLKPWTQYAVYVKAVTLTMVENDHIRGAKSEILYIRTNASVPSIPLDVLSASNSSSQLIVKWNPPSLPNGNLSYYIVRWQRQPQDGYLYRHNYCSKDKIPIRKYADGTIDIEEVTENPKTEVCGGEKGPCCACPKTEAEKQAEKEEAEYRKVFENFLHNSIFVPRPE
Insulin-like growth factor 1 receptor, sequence (P08069 741-1367 limits assumed): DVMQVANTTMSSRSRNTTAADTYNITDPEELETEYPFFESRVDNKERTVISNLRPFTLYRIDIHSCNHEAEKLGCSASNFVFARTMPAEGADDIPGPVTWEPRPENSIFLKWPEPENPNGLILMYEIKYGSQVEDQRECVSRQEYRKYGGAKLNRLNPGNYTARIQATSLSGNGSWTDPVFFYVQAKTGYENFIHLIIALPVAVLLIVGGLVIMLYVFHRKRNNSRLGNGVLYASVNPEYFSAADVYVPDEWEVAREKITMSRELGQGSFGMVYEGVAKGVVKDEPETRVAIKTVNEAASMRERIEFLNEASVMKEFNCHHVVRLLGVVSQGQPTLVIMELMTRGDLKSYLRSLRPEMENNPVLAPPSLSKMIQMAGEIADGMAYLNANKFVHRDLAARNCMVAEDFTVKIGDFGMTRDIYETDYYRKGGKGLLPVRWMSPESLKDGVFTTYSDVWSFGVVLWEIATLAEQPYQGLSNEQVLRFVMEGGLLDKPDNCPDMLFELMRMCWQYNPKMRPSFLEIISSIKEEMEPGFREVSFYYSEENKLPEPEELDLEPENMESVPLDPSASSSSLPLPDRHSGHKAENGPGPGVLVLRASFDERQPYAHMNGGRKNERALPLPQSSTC
G protein-coupled receptor kinase 4, sequence (P32298 whole entry): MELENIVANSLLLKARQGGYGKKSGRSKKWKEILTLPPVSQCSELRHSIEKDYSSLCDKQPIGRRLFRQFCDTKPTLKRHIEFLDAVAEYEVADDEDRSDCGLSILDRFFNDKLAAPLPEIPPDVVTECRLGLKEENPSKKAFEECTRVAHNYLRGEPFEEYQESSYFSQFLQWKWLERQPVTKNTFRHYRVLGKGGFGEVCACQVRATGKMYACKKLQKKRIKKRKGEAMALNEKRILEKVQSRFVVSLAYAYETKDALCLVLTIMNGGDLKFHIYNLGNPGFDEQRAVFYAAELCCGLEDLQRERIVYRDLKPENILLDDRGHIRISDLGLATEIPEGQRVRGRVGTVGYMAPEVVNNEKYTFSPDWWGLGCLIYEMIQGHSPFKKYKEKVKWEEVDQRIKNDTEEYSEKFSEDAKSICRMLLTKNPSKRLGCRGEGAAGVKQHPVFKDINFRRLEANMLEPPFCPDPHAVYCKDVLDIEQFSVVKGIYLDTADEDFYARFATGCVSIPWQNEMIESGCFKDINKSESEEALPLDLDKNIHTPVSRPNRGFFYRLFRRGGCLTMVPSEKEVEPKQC

Compound	IC50 [1] [nM]	IC50 [2] [nM]	also measured
CCc1cc(Nc2nc(N[C@@H](C)c3ccc(F)cc3)nc3ccc(F)cc23)n[nH]1	160		
CCc1cc(Nc2nc(N[C@@H](C)C3CCCCC3)nc3ccccc23)n[nH]1	960		
CCc1cc(Nc2nc(NCCc3ccc(F)cc3)nc3cc(F)ccc23)n[nH]1	180		
Fc1cccc2nc(NCCc3ccccc3)nc(Nc3cc[nH]n3)c12	2500		
CCc1cc(Nc2nc(NC3(c4ccc(Cl)cc4)CC3)nc3ccccc23)n[nH]1	280		
CCn1cnc(Nc2nc(N[C@@H](C)c3ccc(F)cn3)nc3cccc(F)c23)c1	280		
CCc1cc(Nc2nc(N[C@H](C)c3ccc(F)cc3)nc3ccccc23)n[nH]1	1400		
CCc1cc(Nc2nc(NCCc3ccc(F)cc3)nc3ccccc23)n[nH]1	190	41	
CCc1cc(Nc2nc(NCCc3ccc(F)cc3)nc3ccc(OC)cc23)n[nH]1	460		
CCc1cc(Nc2nc(NCCc3ccc(F)cc3)nc3cc(Cl)ccc23)n[nH]1	1100		
CCc1cc(Nc2nc(N[C@@H](C)c3cccc(F)c3)nc3ccccc23)n[nH]1	340		
CCOc1ccc(Nc2nc(N[C@@H](C)c3ccc(F)cn3)nc3cccc(F)c23)cn1	> 10000		
Fc1cccc2nc(NCCc3ccccc3)nc(Nc3ccon3)c12	> 10000		
CCc1cc(Nc2nc(N[C@@H](C)c3ccc(OC)cc3)nc3ccccc23)n[nH]1	290		
CCc1cc(Nc2nc(N[C@@H](C)c3ccc(F)cc3)nc3ccc(OC)cc23)n[nH]1	140		
CCc1cc(Nc2nc(NCCN3CCOCC3)nc3cccc(F)c23)n[nH]1	1400		
CCc1cc(Nc2nc(NCCc3ccc(F)cc3)nc3ccc(F)cc23)n[nH]1	310		
CCc1cc(Nc2nc(N[C@@H](C)c3ccc(F)cc3)nc3cc(Cl)ccc23)n[nH]1	440		
CCc1cc(Nc2nc(NCc3ccc(F)cc3)nc3ccccc23)n[nH]1	250		
CCc1cc(Nc2nc(N[C@@H](C)c3ncc(F)cn3)nc3cccc(F)c23)n[nH]1	230	80	

Compounds with a lower IC50 [1], results first:

IC50 [1] [nM]	IC50 [2] [nM]	Compound	also measured
27	1200	CCc1cc(Nc2nc(NCc3ccc(Cl)cc3)nc3cccc(C)c23)n[nH]1	IC50 [3]: > 10000 nM
27	75	CCc1cc(Nc2nc(N[C@@H](C)c3ccc(C)cc3)nc3cccc(F)c23)n[nH]1	
91	220	CCc1cc(Nc2nc(N[C@@H](C)c3ccc(C#N)cn3)nc3cccc(F)c23)n[nH]1	
41	51	CCc1cc(Nc2nc(N[C@@H](C)c3ccc(F)cc3)nc3cccc(F)c23)n[nH]1	
29	25	CCc1cc(Nc2nc(N[C@@H](C)c3ccc(F)cn3)nc3cccc(F)c23)n[nH]1	
7.2	860	CCc1cc(Nc2nc(N[C@@H](C)c3ccc(F)cn3)nc3cccc(OC)c23)n[nH]1	IC50 [4]: 190 nM; IC50 [5]: > 10000 nM; IC50 [6]: > 10000 nM; IC50 [7]: 97 nM; IC50 [8]: 18 nM; IC50 [9]: 15 nM; IC50 [10]: 2000 nM
20		CCc1cc(Nc2nc(NCCc3ccccc3)nc3cccc(F)c23)n[nH]1	
120	11	CCc1cc(Nc2nc(N[C@@H](C)c3ccc(F)cc3)nc3ccccc23)n[nH]1	
40		CCc1cc(Nc2nc(NCc3ccc(Cl)cc3OC)nc3ccccc23)n[nH]1	
18	4600	CCc1cc(Nc2nc(NCc3ccc(F)cn3)nc3cccc(OC)c23)n[nH]1	IC50 [3]: > 10000 nM; IC50 [4]: 450 nM; IC50 [5]: > 10000 nM; IC50 [6]: > 10000 nM; IC50 [7]: 190 nM; IC50 [8]: 33 nM; IC50 [9]: 36 nM; IC50 [10]: 10000 nM
70		CCc1cc(Nc2nc(N[C@@H](C)c3ccc(Cl)cc3)nc3ccccc23)n[nH]1	
110	180	CCc1cc(Nc2nc(NCCc3ccc(F)cc3)nc3cccc(F)c23)n[nH]1	
100		CCc1cc(Nc2nc(N[C@@H](C)c3ccc(F)cc3)nc3cc(F)ccc23)n[nH]1	
11	330	CCc1cc(Nc2nc(N[C@@H](C)c3ccc(F)cn3)nc3cccc(C)c23)n[nH]1	IC50 [10]: 610 nM
10	> 10000	CCc1cc(Nc2nc(NCCc3ccccc3)nc3cccc(OC)c23)n[nH]1	IC50 [3]: > 10000 nM
6	1200	CCc1cc(Nc2nc(NCc3ccc(Cl)cc3OC)nc3cccc(C)c23)n[nH]1	IC50 [10]: 170 nM
16	> 10000	CCc1cc(Nc2nc(NCc3ccc(Cl)cc3)nc3cccc(OC)c23)n[nH]1	IC50 [3]: > 10000 nM; IC50 [10]: 2000 nM
3.5	22000	CCc1cc(Nc2nc(N[C@@H](C)c3ccc(Cl)cn3)nc3cccc(OC)c23)n[nH]1	
